Reference: publication PMC5818264 (Journal of the American Chemical Society, 2017)

Legend:
[1] = target: T1, MelBSt (melibiose permease of Salmonella typhimurium) (Salmonella enterica, UniProt P30878); assay: Trp to dansyl FRET in detergent extract of membrane vesicles; settings: […] D^2G; DDM or D-NBM-C11; sugar binding site
[2] = target: T2, MelBEc (MelB homologue from E. coli) (Escherichia coli, UniProt P02921); assay: as above; settings: […] D^2G; D-NBM-C11; sugar binding site
[3] = target: LeuT (leucine transporter) (Aquifex aeolicus, UniProt O67854); assay: scintillation proximity assay; type: binding; settings: labelled compound; DDM or NBMs at CMC + […] or […] wt %; room temperature
[4] = target: T2, MelBEc (MelB homologue from E. coli); assay: reversal of Trp to D^2G FRET in detergent extract of membrane vesicles; type: binding; settings: saturating melibiose; […] D^2G; D-NBM-C11; competitive
[5] = target: T1, MelBSt (melibiose permease of Salmonella typhimurium); assay: as above; type: binding; settings: saturating melibiose; […] D^2G; DDM or D-NBM-C11; competitive

T1 sequence (P30878 whole entry): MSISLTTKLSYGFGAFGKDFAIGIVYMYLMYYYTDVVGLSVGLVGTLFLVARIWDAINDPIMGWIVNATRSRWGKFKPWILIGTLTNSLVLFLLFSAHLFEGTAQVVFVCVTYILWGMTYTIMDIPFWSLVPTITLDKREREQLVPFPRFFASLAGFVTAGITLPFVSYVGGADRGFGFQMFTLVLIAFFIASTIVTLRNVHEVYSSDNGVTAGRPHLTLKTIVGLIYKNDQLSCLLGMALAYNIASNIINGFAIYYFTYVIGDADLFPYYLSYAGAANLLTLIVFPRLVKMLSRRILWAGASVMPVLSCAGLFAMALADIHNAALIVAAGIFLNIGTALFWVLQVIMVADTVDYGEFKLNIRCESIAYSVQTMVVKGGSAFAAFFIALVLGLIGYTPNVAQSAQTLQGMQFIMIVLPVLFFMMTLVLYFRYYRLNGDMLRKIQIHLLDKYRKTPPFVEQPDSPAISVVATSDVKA
T2 sequence (P02921 2-473): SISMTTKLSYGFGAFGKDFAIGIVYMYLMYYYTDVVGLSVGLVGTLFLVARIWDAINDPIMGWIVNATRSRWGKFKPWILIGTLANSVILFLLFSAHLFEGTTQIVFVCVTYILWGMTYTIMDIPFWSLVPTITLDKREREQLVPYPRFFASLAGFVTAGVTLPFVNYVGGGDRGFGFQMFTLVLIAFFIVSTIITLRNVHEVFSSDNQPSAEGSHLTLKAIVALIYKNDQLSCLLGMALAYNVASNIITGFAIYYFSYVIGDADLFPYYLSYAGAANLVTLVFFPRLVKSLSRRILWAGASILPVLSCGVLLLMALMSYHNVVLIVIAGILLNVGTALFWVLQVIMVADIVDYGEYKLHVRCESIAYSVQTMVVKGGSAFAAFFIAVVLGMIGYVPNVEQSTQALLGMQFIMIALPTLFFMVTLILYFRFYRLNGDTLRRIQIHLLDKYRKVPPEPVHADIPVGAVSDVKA

CN(C)c1cccc2c(S(=O)(=O)NCCS[C@@H]3O[C@H](CO)[C@H](O)[C@H](O)[C@H]3O)cccc12 [2′-(N-dansyl) aminoalkyl-1-thio-β-D-galactopyranoside]
Trp to dansyl FRET in detergent extract of membrane vesicles [1]: FRET from tryptophan residues (Trp) to a fluorescent ligand
Trp to dansyl FRET in detergent extract of membrane vesicles [2]: both MelB proteins gave remarkable levels of galactoside binding in D-NBM-C11

CC(C)C[C@H](N)C(=O)O [[^3H]-Leu]
scintillation proximity assay [3]: ability of the transporter to bind radiolabeled leucine [^3H-Leu]

OC[C@H]1O[C@H](OC[C@H]2OC(O)[C@H](O)[C@@H](O)[C@@H]2O)[C@H](O)[C@@H](O)[C@H]1O (some centres unmarked) [melibiose]
reversal of Trp to D^2G FRET in detergent extract of membrane vesicles [4]: both MelB proteins gave remarkable levels of galactoside binding in D-NBM-C11
reversal of Trp to D^2G FRET in detergent extract of membrane vesicles [5]: MelBSt solubilized in DDM showed an effective melibiose reversal of FRET
